Here are results for 1 molecule from patent US12419874B2, “GLP-1R agonist compound and use thereof” (Chongqing Pharmaceutical Research Institute Co., Ltd., priority 2024, dated 2025).

Structures are written as SMILES. Where only a bound is given, the exact number is not on record here.

For data set [1], the target named is T1, GLP-1R (Homo sapiens, UniProt P43220). Put plainly: GLP-1R agonistic activity by cAMP detection kit in HEK293-GLP-1R-luc cells (Example 58). Particulars: 30 min incubation. Format: cell-based. On the procedure: The agonistic activities of the compounds of the present disclosure on GLP-1R were evaluated by detecting the generation of cAMP.
• (1) Cell line: HEK293-GLP-1R-luc Stable Cell Line (Cobioer, CBP71117); • (2) Culture medium: DMEM+10% FBS (Gibco); • (3) Kit: cAMP detection kit (PerkinElmer). 2. Experimental Procedures • (1) HEK293-GLP1R cells were inoculated in a 384-well plate at a density of 2000 cells per well; • (2) 4× working solution of each compound was formulated; • (3) 5 μL of 4× working solution of each compound was added to corresponding well and incubated at 37° C. for 30 min; • (4) 10 μL of Eu-cAMP tracer diluted with Lysis Buffer (1/50) was added to each well; • (5) 10 μL of Ulight-anti-cAMP diluted with Lysis Buffer (1/150) was added to each well; • (6) The plate was incubated at room temperature for 1 h; • (7) The plate was read by a multimode microplate reader (excitation wavelength: 320 nm; emission wavelength: 665 nm and 620 nm). 3. Data Analysis • (1) % Activity was calculated by the following formula: % Activity=100−(Signalcmpd−SignalAve-PC)/(SignalAve-VC−SignalAve-PC)×100 • (2) The dose-response curve was plotted to calculate EC50: Y=Bottom+(Top−Bottom)/(1+10^(Log EC50−X)*HillSlope)) • X: log of agonist concentration; Y: Activity. 4. Experimental Results

The target in data set [2] is T1, GLP-1R. Put plainly: GLP-1R agonistic activity by One-Lite luciferase assay in HEK293-GLP-1R-luc cells (Example 59). The data set is classed as cell-based. Particulars: 6 h incubation, read-out: cAMP EC50. The method, boiled down:
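HEK293 cells stably expressing GLP-1R with a cAMP-responsive luciferase reporter, 30000 cells/well, exposed to compound for 6 h at 37 °C. Chemiluminescence read after 3 min with One-Lite substrate at room temperature; % activity normalised to positive and vehicle controls, EC50 from a four-parameter dose-response fit.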

Data set [3] can be described thus: In vivo pharmacokinetics in rats, oral. More on the design: species or system SD rats. Particulars: for AUC(0-t) / Cmax / half-life: rat, plasma, SD rats, PO. The procedure: The compounds of the present disclosure were formulated with […]+90% 100 mM glycine-64 mM NaOH, and orally administered to fasted SD rats at a dose of 1 mg/kg or 5 mg/kg, respectively. At different time points (0.25, 0.5, 1.0, 2.0, 4.0, 5.0, 6.0, 7.0, 8.0, and 24 h) after administration, about 50 μL of blood samples were collected from veins into anticoagulant tubes containing EDTA-K2, and centrifuged to separate plasma. The plasma concentrations of the compounds were determined by LC-MS/MS. WinNonlin was used to calculate the pharmacokinetic parameters by using the non-compartmental analysis, and the experimental results were listed in Table 9.

Data set [4] in a line: In vivo pharmacokinetics in Macaca fascicularis, intravenous. The procedure: A clear solution of “example compound 67 in WO2018056453” in 10% PEG/90% 100 mM glycine-NaOH and a clear solution of “Compound 1” in 10% PEG/90% 100 mM glycine-NaOH were prepared. The above solutions were injected into subcutaneous veins of the fore limbs of male Macaca fascicularis (n=2) at a dose of 0.12 mg/kg, respectively. At different time points (0.083, 0.25, 0.5, 1.0, 2.0, 4.0, 8.0, 24.0, and 36 h) after administration, blood samples were collected from veins into anticoagulant tubes containing EDTA-K2, and centrifuged to separate plasma.
The drug concentrations in the plasma were determined by the LC-MS/MS method, and the pharmacokinetic software (e.g., winNonlin Version 6.3) was used to calculate the related pharmacokinetic parameters as shown in Table 10 by using the log-linear trapezoidal rule of the non-compartmental analysis.

Data set [5] relates to GLP-1R humanized C57BL/6N mice fed with high-fat diets. The data set can be described thus: In vivo efficacy on body weight and food intake in high-fat diet hGLP-1R mice. The settings on record: for Cumulative Food Intake on Day 27 / Change Rate of Body Weight on Day 27: gavage once daily; for Change Rate of Body Weight on Day 27: corrected by Vehicle. On the procedure: The effects of long-term administration of the compounds of the present disclosure on the weight and food intake of GLP-1R humanized C57BL/6N mice fed with high-fat diets were evaluated.
• five-week-old male C57BL/6N hGLP-1R mice; • 60% high-fat diet (HFD); electronic balance. 3. Experimental Method • (1) C57BL/6N_hGLP-1R mice were fed with 60% high-fat diets until the end of the experiment. • (2) At the 10th week of HFD feeding, the model mice were randomly divided into groups according to their body weight, with 6 to 7 mice in each group. Subsequently, the single-caged mice were adaptively fed for 2 weeks. The first group was Vehicle group (Vehicle: 10% PEG 400+10% propylene glycol+80% glycine-NaOH buffer), and administered with the Vehicle; the remaining groups were drug treatment groups; the duration of administration was 27 days. • (3) The day of drug administration was defined as Day 0. At each administration, the animals were weighed and the data were recorded, and the mice were treated depending upon their body weight. • (4) The food intake of the mice in each group was measured once a day from Day 0 of the experiment. Specifically, the diets were changed after each weighing and administration, and the addition amounts and residual amounts thereof were recorded. 4. Experimental Data Processing and Statistical Analysis
The rates of change in the body weight of mice after administration were summarized and statistically analyzed.
The rate of change in the body weight corrected by Vehicle was calculated: (((BWt/BW0)−1)−(BWt-vec-avg))*100%;
BWt represented the body weight of mouse in drug treatment group on Day t; BW0 represented the body weight of mouse in drug treatment group on Day 0; BWt-vec-avg represented the average body weight of mice in Vehicle group on Day t for drug treatment groups.
The cumulative food intake of mice after drug administration was summarized and statistically analyzed.
Cumulative food intake was calculated: addition amounts (g)—residual amounts (g).
The cumulative food intake was the sum of daily food intake of each animal during the period of administration.

The mark [6] stands for this setting: rats, oral, versus example compound 67 in WO2018056453, in words.
Setting [7] is: Macaca fascicularis, versus example compound 67 in WO2018056453, in words.
The mark [8] stands for this setting: cynomolgus monkey, plasma, male Macaca fascicularis, 0.12 mg/kg.

T1 sequence (P43220 24-463): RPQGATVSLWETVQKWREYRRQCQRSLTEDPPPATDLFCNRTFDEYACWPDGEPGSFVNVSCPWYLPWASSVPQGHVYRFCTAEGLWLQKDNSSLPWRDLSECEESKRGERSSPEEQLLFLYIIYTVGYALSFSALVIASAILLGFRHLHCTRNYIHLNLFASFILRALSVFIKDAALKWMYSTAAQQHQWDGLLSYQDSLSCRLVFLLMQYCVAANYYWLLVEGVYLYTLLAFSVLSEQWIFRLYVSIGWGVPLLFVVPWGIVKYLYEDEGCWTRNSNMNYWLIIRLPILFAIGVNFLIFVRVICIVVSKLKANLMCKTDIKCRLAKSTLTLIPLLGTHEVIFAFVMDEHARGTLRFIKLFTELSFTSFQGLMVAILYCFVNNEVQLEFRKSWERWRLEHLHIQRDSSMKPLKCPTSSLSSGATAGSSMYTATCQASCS

What is called EC50 is the midpoint of the concentration-response curve. One may read the AUC(0-t) as exposure summed from dosing to a finite time, without extrapolation to infinity. Read a low AUC(0-t) as less exposure. The Cmax is the peak of the concentration-time curve. A word on the half-life: it is how long it takes for the measured level to halve. A word on the clearance: it is the rate of elimination divided by the concentration. In data set [1], `Cc1cc(-n2nc3c(c2-n2ccn(-c4ccc5c(cnn5C)c4F)c2=O)[C@H](C)N(C(=O)c2cc4cc([C@H]5CCOC(C)(C)C5)ccc4n2[C@@]2(c4noc(=O)[nH]4)C[C@@H]2C)CC32CC2)cc(C)c1F` [Compound 1] registered an EC50 of no more than 0.1 nM. In addition, the EC50 in data set [2] is no more than 20 nM. In data set [3] (1 mg/kg), this molecule gave an AUC(0-t) of 2300 ng·h/mL, a Cmax of 213 ng/mL and a half-life of 10 h. For the same molecule, in data set [3] (5 mg/kg), the AUC(0-t) amounted to 11800 ng·h/mL, the Cmax came out at 1080 ng/mL and the half-life was 12.9 h. In data set [3] (setting [6]), the “maximum plasma concentration Cmax compared with the control compound” value is listed as “higher” and the “oral exposure AUC compared with the control compound” value was “higher”. In data set [4] (setting [7]), the “clearance (Cl) compared with the control compound” value is recorded as “lower”, the “exposure (AUC) compared with the control compound” value is on record as “higher” and the “half-life (T1/2) compared with the control compound” value is on record as “longer”. In data set [4] (setting [8]), this molecule had an AUC(0-t) of 754 ng·h/mL, a clearance of 2.63 mL/min/kg and a half-life of 6.08 h. Also, in data set [5] (0.3 mpk), the “Cumulative Food Intake on Day 27” value was 73.91 ± 6.71 g and the “Change Rate of Body Weight on Day 27” value is recorded as −15.04 ± 1.90%. Moreover, in data set [5] (1.5 mpk), the “Cumulative Food Intake on Day 27” value is listed as 70.01 ± 5.88 g and the “Change Rate of Body Weight on Day 27” value is listed as −18.46 ± 1.98%. In data set [5] (3.0 mpk), the “Cumulative Food Intake on Day 27” value stood at 62.75 ± 6.97 g and the “Change Rate of Body Weight on Day 27” value is −23.78 ± 1.61%. Also, in data set [5] (long-term administration, 0.3 to 3 mpk, in words), the “reduction of the body weight and inhibition of the food intake” value is “excellent effects”.
